A melting point compilation (Tetko et al.; mined from patent text by program, amines drawn as free bases though some values may be those of a salt)

| melting point [°C] | SMILES |
| --- | --- |
| 47 to 48 | O=CNc1ccccc1F |
| 93 to 94 | Cc1sc(CCc2ccc(/C=C/CO)cc2)nc1-c1ccccc1 |
| 110 to 112 | Cn1c(COc2ccc(C(C)(CCC(=O)O)c3ccc(OCc4nc5ccccc5n4C)cc3)cc2)nc2ccccc21 |
| 133 to 135 | COc1cccc([C@H]2O[C@H](CC(=O)N[C@@H](C)C(=O)O)C(=O)N(CC(C)(C)CO)c3ccc(Cl)cc32)c1OC |
| 280 to 285 | COc1cc2c(C3C(=O)Nc4ccccc43)ncnc2cc1OCc1ccccc1 (centres undefined) |
| 236 to 237 | Cc1cc(C)c(-n2[nH]c(Nc3ccc(Cl)cc3)cc2=O)c(C)c1N |
| 218 | O=C(O)CCCCCNC(=O)c1cccc2c(=O)c3ccccc3[nH]c12 |
| 246 | NC(N)=Nc1nc(-c2ccc(CNC(=O)c3ccco3)o2)cs1 |
| 92 to 95 | CC(C)(C(=O)O)c1ccc2oc(-c3ccccc3)nc2c1 |
| 118 to 120 | Nc1nc(C(=O)NCCO)cs1 |
| 148 to 150 | O=C(O)CN(C(=O)c1ccccc1S)C1CCCC1 |
| 132 to 134 | Cc1c(C)c2c(c(C)c1OCc1ccc(S(C)=O)cc1)C(c1ccc(C(C)C)cc1)C(C)(C)O2 (centres undefined) |
| 134 to 136 | O=S(=O)(c1ccc(Cl)cc1)N1c2ccccc2CCC1c1ccc(CN2CCSCC2)cc1 (centres undefined) |
| 273 to 274 | Oc1ccc2nc(-c3ccc(Cl)cc3)oc2c1 |
| 156 to 157 | CC(C)(C)OC(=O)Nc1ccc(-c2ccc(F)cc2)cc1NC(=O)CC(=O)c1sccc1C#N |
| 58 to 59 | CCCCCCCCCCCCc1ccccc1C(SCCCC(=O)O)C(=O)O (centres undefined) |
| 170 to 173 | CC(C)(C)C#Cc1cc([N+](=O)[O-])ccc1C(=O)O |
| 124 | COc1cc(Nc2nccc(NC(=O)OC(C)(C)C)n2)cc(OC)c1OC |
| 188 | Cc1cc2nc(C(C)C)c(CO)c(-c3ccc(F)cc3)n2n1 |
| 148 to 150 | COc1nc2ccccc2nc1NC(=S)N1CCN(c2ccccc2SC)CC1 |
| 204 to 206 | CCN(CC)c1ccc2c(c1)Cc1c-2[nH]c2ccccc12 |
| 151 to 155 | N=C(N)NCCCOc1cccc2c1NC(=O)C(CC(=O)O)C2 (centres undefined) |
| 186 to 191 | COc1ccc(Nc2ncc(Br)c(Nc3ccc(OC)c(OC)c3OC)n2)c(OC)c1OC |
| 196 to 198 | CCOC(=O)C(=Cc1cccn2c([N+](=O)[O-])c(C)nc12)N=[N+]=[N-] |

| melting point [°C] | SMILES |
| --- | --- |
| 99 to 100 | CCNC(=O)Nc1ccccc1 |
| 322 to 325 | CCCOc1ccccc1-c1nc2nnc(N)nc2c(=O)[nH]1 |
| 243 to 245 | O=C(O)CCc1c(C(=O)O)[nH]c2cc(-c3ccccc3)cc(-c3ccccc3)c12 |
| 168 | Cc1cc(N)nc(CCc2nc3cc(-c4ccc(S(=O)(=O)N5CCC5)cc4)cnc3[nH]2)c1 |
| 172 to 174 | COc1ccc(OC)c(Cc2cc(C)cc(OC)c2C(=O)O)c1 |
| 155 to 160 | NC(=O)c1ccc(-c2ccnc(C(=O)N(O)Cc3ccccc3)c2)cc1 |
| 57 | CNc1ccc(OC)c([N+](=O)[O-])c1OC |
| 215 to 218 | COc1ccc(/C=C/C(=O)N2CC(CCl)c3c2cc(O)c2ncccc32)cc1O (centres undefined) |
| 68 to 72 | CNc1nc(NC)nc(OC(F)(F)F)n1 |
| 76.8 | CCOC(=O)C=Cc1ccc(C(=O)Cl)cc1 |
| 135 to 140 | CC(=O)N1CCSC1c1nsc2ccc(-n3c(=O)cc(C(F)(F)F)n(C)c3=O)cc12 (centres undefined) |
| 222 to 223 | CCCCOCCOc1ccc(-c2ccc3c(c2)C=C(C(=O)Nc2ccc(CP4(=O)OCCCO4)cc2)CCS3(=O)=O)cc1 |
| 85 to 87 | CC1(C)OC[C@H](Cn2cc3nccc(I)c3n2)O1 |
| 130 | Cc1ccc(N(C(=O)CCl)c2c(Cl)cccc2Cl)cc1 |
| 266 to 267 | CCCCc1cc2c(=O)n3cc(C(N)=O)ccc3nc2s1 |
| 91 to 92 | CCc1c(C(=O)N2CCN(CCCCc3c[nH]c4ccc(F)cc34)CC2)nc(-c2ccccc2Cl)n1-c1ccc(Cl)cc1 |
| 149 to 151 | COCC(C)Nc1cc(-c2ncnc(Nc3cccc(Cl)c3)n2)ccn1 (centres undefined) |
| 235 to 236 | Cc1nc(-c2cccc([N+](=O)[O-])c2)sc1C(=O)O |
| 234 to 235 | CC(C)(C)c1ccc(C(=O)Nc2cn3cc(C(F)(F)F)ccc3n2)cc1 |
| 117 to 119 | COc1cccc(NN=C(Cl)C(C)=O)c1 |
| 153 | CCCCCc1ccc(CCc2ccc(-c3ccc(Cl)c(F)c3)cc2)cc1 |
| 234 to 235 | CC(=O)Nc1ccc(OC(C)CN2CCN(CCc3ccc(C(=O)O)cc3)CC2)cc1 (centres undefined) |
| 119 to 120 | CC(O)c1ccc(Cc2c(Cl)cc(N3N=CCNC3=O)cc2Cl)cc1 (centres undefined) |
| 118 to 120 | CCOC(=O)C1=C(COCc2nnc(C)o2)NC(C)=C(C(=O)OC)C1c1cccc(Cl)c1Cl (centres undefined) |

| melting point [°C] | SMILES |
| --- | --- |
| 275 to 276 | O=C(O)c1ccc(-c2csc(-c3ccc(C(F)(F)F)cc3)n2)cc1 |
| 90 | CCCCCCCCCCCCCCOc1ccc(C(=O)Cl)cc1Cl |
| 146 | O=C(O)CCSC(=S)Nc1ccc(Oc2ccc([N+](=O)[O-])cc2)cc1 |
| 146 to 148 | Cc1ccc(C2CCN(C[C@H](O)COc3cccc4oc(S(=O)(=O)N(C)C)cc34)CC2)cc1C |
| 149 to 150 | CC(C)c1cc2c(cc1O)C(=O)CCC2 |
| 192 | N#CC(=C(O)C1CCN(Cc2ccccc2)CC1)c1ccccc1 |
| 127 to 131 | COC(=O)CCCc1cc2cc(Cl)ccc2n1S(=O)(=O)c1ccc2c(ccn2C(C)=O)c1 |
| 128 to 132 | CC(C)(C)NS(=O)(=O)c1cccc2c1CSC2 |
| > 300 | Nc1ccc(-c2nc(Cl)c3c(=O)[nH][nH]c(=O)c3c2N)cc1 |
| 82 to 84 | Cc1nc(Cl)c2sccc2n1 |
| 140 to 145 | CCc1ccc(C(=O)CCCCCN2CCC(CNC(=O)c3cc(Cl)c(N)cc3OC)CC2)cc1 |
| 175 to 178 | O=c1cc(-c2ccoc2)c2ccc(Sc3cccc(-c4ccccc4)n3)cc2o1 |
| 173 to 175 | Cn1cc(-c2cccc(N3Cc4cc(C(C)(C)C)ccc4C3=O)c2CO)cc(Nc2ccn(C3CC3)n2)c1=O |
| 101 to 102 | COC(=O)CCSc1ncccc1C#N |
| 248 to 249 | O=C(O)COc1ccc(-c2c3ccccc3cc3sc4ccccc4c23)cc1I |
| 147 to 149 | CCNC(=O)c1c(Cl)ccc(N)c1[Si](C)(C)C |
| 52 to 56 | CCC1(c2ccc(C(O)C(C)(C)C)cc2)OCCO1 (centres undefined) |
| 146 to 148 | CCCC=COC1OC(CO)C(O)C(O)C1NC(C)=O (centres undefined) |
| 222 to 223 | CC(C)c1cc(C(=O)Nc2ccc(C(=O)O)c(Cl)c2)sc1C(C)C |
| 225 to 228 | O=C1NC(=O)C(=Cc2csc(NC(c3ccccc3)(c3ccccc3)c3ccccc3)n2)S1 |
| 130 to 131 | O=C(NCc1ncc(O)c2ccccc12)c1ccccc1 |
| 184 to 185 | Cc1ccc(C)n1-c1ccc(C=CC(=O)O)cc1 |
| 201 to 202 | COc1cccc2c(=O)c3ccc(Cl)cc3oc12 |
| 196 | COc1cccc(N2CCN(S(=O)(=O)c3cccc(/C=C/C(=O)NO)c3)CC2)c1 |

| melting point [°C] | SMILES |
| --- | --- |
| 147 | CCCOc1ccc(S(=O)(=O)NC[C@@H](C(=O)NO)N2CCCCC2)cc1 |
| 208 | CC(C)n1nc(-c2cnc(N)nc2-c2ccc(F)c(F)c2)ccc1=O |
| 112 to 113 | COC=C1CCC(C#N)(c2ccc(OC)c3c2OCCO3)CC1 (centres undefined) |
| 134 to 137 | CC(=O)Oc1ccc(-c2ccc(F)cc2)cc1C(=O)O |
| 203 to 205 | CC(NS(C)(=O)=O)c1ccc2[nH]cc(CCN3C(=O)c4ccccc4C3=O)c2c1 (centres undefined) |
| 221 to 222 | CCn1cc(C(=O)O)c(=O)c2c(F)c(F)c(N3CCNC(c4ccsc4)C3)c(F)c21 (centres undefined) |
| 66 to 67 | COc1cc2c(cc1OC)=C(CCCl)OCC(C)(C)C=2 |
| 139 to 141 | Cn1nnc(CN2CCC[C@@H](OCc3cc(C(F)(F)F)cc(C(F)(F)F)c3)[C@H]2c2ccccc2)n1 (relative stereo) |
| 128 to 133 | CC(=O)c1ccc(C(F)(F)C(F)(F)c2ccccc2)cc1 |
| 147 to 158 | CCc1cc2c(cc1CC)C(=CC#N)OC2=O |
| 127 to 128 | O=C(C=Cc1cccc(-c2ccc(O)cc2)c1)NO |
| 166 to 170 | OC12CC3CC(C1)C(NC(c1ccccc1)(c1ccccc1)c1ccccc1)C(C3)C2 (centres undefined) |
| 138 to 140 | O=C(O)Cc1cccc2c1ccn2Cc1ccccc1 |
| 124 to 126 | C(#CCOCC#CCCn1cnc2cnc3ccccc3c21)CCn1cnc2cnc3ccccc3c21 |
| 268 to 270 | Cn1cc(C(=O)O)c(=O)c2cc3cc(F)c(N4CCNC(c5cccs5)C4)cc3nc21 (racemic) |
| 139 to 141 | CCC(C)(C)c1ccc(OCC(=O)Nc2cccc(C(=O)Nc3[nH]n(-c4c(Cl)cc(Cl)cc4Cl)c(=O)c3Br)c2)c(C(C)(C)CC)c1 |
| 146 to 149 | CC(C)CCc1nc2ccccn2c(=O)c1-c1ccc(Cl)cc1 |
| 154 to 157 | CC(C)(C)C1CC(=CO)C(Cl)=C(C=O)C1 (centres undefined) |
| 168 | CC(=O)Nc1ccc(Sc2c([N+](=O)[O-])cc(C(=O)O)cc2S(N)(=O)=O)cc1 |
| 210 to 211 | CCOCc1nc2c(N)nc3cccnc3c2n1CC(C)(C)NC(=O)C1CCCCC1 |
| 116 to 117 | COc1ccc([N+](=O)[O-])c(CC#N)n1 |
| 136 | COc1ccc(C(=O)CCCN2CCC(OC(=O)c3cc(Cl)c(N)c4c3OCC4)CC2)cc1 |

| SMILES | melting point [°C] |
| --- | --- |
| O=C(CCC1CCCCC1)NC1N=C(c2ccccc2)c2ccccc2NC1=NO (centres undefined) | 196 |
| Oc1ccc2c(c1)C13CCCCC1(Cc1ccccc1)C(C2)N(CC1CC1)CC3 (centres undefined) | > 280 |
| COC=C(Br)c1c(C(F)(F)F)nc(C(F)F)c(C(=O)OC)c1CC1CC1 | 79 to 79.5 |
| CCc1cccc2c1C(=O)N1CCC[C@H]1c1c(C(=O)OC(C)(C)C)ncn1-2 | 155 to 156 |
| O=C(CNC1=Nc2ccc(Cl)cc2C(c2ccccc2Cl)=NC1)CN1C(=O)c2ccccc2C1=O | 180 to 190 |
